Assay results from ChEMBL document CHEMBL4007421, “Discovery and Preclinical Characterization of 3-((4-(4-Chlorophenyl)-7-fluoroquinoline-3-yl)sulfonyl)benzonitrile, a Novel Non-acetylenic Metabotropic Glutamate Receptor 5 (mGluR5) Negative Allosteric Modulator for Psychiatric Indications” (J Med Chem, 2017).

Legend:
[1] = system: Liver; assay: Intrinsic clearance in human liver microsomes at 2.5 uM assessed per gram of liver; type: ADME, microsome
[2] = system: Liver; assay: Intrinsic clearance in rat liver microsomes at 2.5 uM assessed per gram of liver; type: ADME, microsome

SMILES	CLint [1] [mL/min/g]	CLint [2] [mL/min/g]
O=S(=O)(c1cc(Cl)cc(Cl)c1)c1cnc2c(F)cccc2c1-c1ccccc1F	0.44	–
COc1ccc(-c2c(S(=O)(=O)c3cc(F)cc(F)c3)cnc3cc(F)ccc23)cc1	1.51	–
COc1cccc(-c2c(S(=O)(=O)c3ccc(C)c(C)c3)cnc3cc(F)ccc23)c1	8.78	–
COc1ccc(-c2c(S(=O)(=O)c3cc(Cl)cc(Cl)c3)cnc3c(F)cccc23)cc1	2.11	–
COc1cccc(-c2c(S(=O)(=O)c3ccc(C)c(F)c3)cnc3c(F)cccc23)c1	4.02	–
O=S(=O)(c1ccc(F)c(F)c1)c1cnc2c(F)cccc2c1-c1cccc(Cl)c1	1.13	–
COc1ccc(-c2c(S(=O)(=O)c3ccc(F)c(F)c3)cnc3c(F)cccc23)cc1	2.12	–
COc1ccc(-c2c(S(=O)(=O)c3ccc(F)c(Cl)c3)cnc3cc(F)ccc23)cc1	1.08	–
N#Cc1cccc(S(=O)(=O)c2cnc3cc(F)ccc3c2-c2cccc(Cl)c2)c1	0.99	–
COc1ccc(S(=O)(=O)c2cnc3c(F)cccc3c2-c2ccc(Cl)cc2)cc1	1.05	–
COc1cccc(-c2c(S(=O)(=O)c3cc(F)cc(F)c3)cnc3c(F)cccc23)c1	2.76	–
COc1ccc(-c2c(S(=O)(=O)c3ccc(OC)cc3)cnc3c(F)cccc23)cc1	2.12	–
N#Cc1cccc(S(=O)(=O)c2cnc3cc(F)ccc3c2-c2cccc(F)c2)c1	0.78	–
O=S(=O)(c1cccc(F)c1)c1cnc2c(F)cccc2c1-c1cccc(Cl)c1	0.56	–
O=S(=O)(c1ccc(F)c(Cl)c1)c1cnc2cc(F)ccc2c1-c1cccc(Cl)c1	0.66	–
O=S(=O)(c1cc(Cl)cc(Cl)c1)c1cnc2c(F)cccc2c1-c1cccc(F)c1	1.08	–
Cc1ccc(S(=O)(=O)c2cnc3cc(F)ccc3c2-c2cccc(F)c2)cc1F	0.41	–
O=S(=O)(c1ccc(F)c(F)c1)c1cnc2cc(F)ccc2c1-c1cccc(F)c1	0.6	–
COc1ccc(-c2c(S(=O)(=O)c3cccc(C#N)c3)cnc3cc(F)ccc23)cc1	0.92	–
O=S(=O)(c1cccc(F)c1)c1cnc2cc(F)ccc2c1-c1ccc(F)cc1	0.11	–
COc1cccc(-c2c(S(=O)(=O)c3ccc(OC)c(Cl)c3)cnc3cc(F)ccc23)c1	1.71	–
O=S(=O)(c1ccc(F)c(F)c1)c1cnc2c(F)cccc2c1-c1cccc(F)c1	1.28	–
O=S(=O)(c1cc(F)cc(F)c1)c1cnc2c(F)cccc2c1-c1cccc(Cl)c1	0.64	–
O=S(=O)(c1ccc(F)c(Cl)c1)c1cnc2c(F)cccc2c1-c1cccc(Cl)c1	0.18	–
O=S(=O)(c1ccc(F)c(F)c1)c1cnc2c(F)cccc2c1-c1ccc(F)cc1	0.78	–

SMILES	CLint [1] [mL/min/g]	CLint [2] [mL/min/g]
Cc1ccc(S(=O)(=O)c2cnc3c(F)cccc3c2-c2ccc(Cl)cc2)cc1F	2.2	–
COc1cccc(-c2c(S(=O)(=O)c3ccc(F)cc3)cnc3c(F)cccc23)c1	2.23	–
Cc1ccc(S(=O)(=O)c2cnc3cc(F)ccc3c2-c2cccc(Cl)c2)cc1C	4.01	–
O=S(=O)(c1cc(F)cc(F)c1)c1cnc2cc(F)ccc2c1-c1ccc(Cl)cc1	0.03	–
O=S(=O)(c1cc(Cl)cc(Cl)c1)c1cnc2cc(F)ccc2c1-c1cccc(Cl)c1	0.93	–
COc1ccc(-c2c(S(=O)(=O)c3ccc(C)c(F)c3)cnc3c(F)cccc23)cc1	3.27	–
Cc1ccc(S(=O)(=O)c2cnc3cc(F)ccc3c2-c2ccc(Cl)cc2)cc1C	7.88	–
COc1cccc(S(=O)(=O)c2cnc3cc(F)ccc3c2-c2cccc(Cl)c2)c1	2.97	–
COc1ccc(-c2c(S(=O)(=O)c3ccc(C)c(C)c3)cnc3cc(F)ccc23)cc1	4.13	–
COc1cccc(-c2c(S(=O)(=O)c3cccc(F)c3)cnc3c(F)cccc23)c1	2.6	–
Cc1ccc(S(=O)(=O)c2cnc3ccccc3c2-c2ccc(Cl)cc2)cc1	2.12	17.5
O=S(=O)(c1ccc(F)c(Cl)c1)c1cnc2c(F)cccc2c1-c1cccc(F)c1	1.23	–
Cc1ccc(S(=O)(=O)c2cnc3cc(F)ccc3c2-c2ccc(F)cc2)cc1C	9.25	–
Cc1ccc(S(=O)(=O)c2cnc3c(F)cccc3c2-c2cccc(F)c2)cc1F	3.92	–
Cc1ccc(S(=O)(=O)c2cnc3cc(F)ccc3c2-c2cccc(Cl)c2)cc1F	2.13	–
O=S(=O)(c1cccc(F)c1)c1cnc2c(F)cccc2c1-c1ccc(Cl)cc1	0.62	–
COc1ccc(-c2c(S(=O)(=O)c3ccc(F)c(F)c3)cnc3cc(F)ccc23)cc1	1.1	–
O=S(=O)(c1ccc(F)c(Cl)c1)c1cnc2c(F)cccc2c1-c1ccc(F)cc1	0.19	–
N#Cc1cccc(S(=O)(=O)c2cnc3c(F)cccc3c2-c2ccc(F)cc2)c1	0.19	–
O=S(=O)(c1ccc(F)c(F)c1)c1cnc2cc(F)ccc2c1-c1cccc(Cl)c1	0.38	–
O=S(=O)(c1ccc(F)cc1)c1cnc2cc(F)ccc2c1-c1cccc(F)c1	0.95	–
O=S(=O)(c1ccc(F)c(Cl)c1)c1cnc2c(F)cccc2c1-c1ccccc1F	1.39	–
COc1cccc(-c2c(S(=O)(=O)c3cc(F)cc(F)c3)cnc3cc(F)ccc23)c1	1.81	–
N#Cc1cccc(S(=O)(=O)c2cnc3c(F)cccc3c2-c2cccc(F)c2)c1	0.34	–
